Results: patent US20200121620A1, “SENOLYTIC COMPOUNDS” (UNITED KINGDOM RESEARCH AND INNOVATION, priority 2017, published 2020)
Counter-ions that a name gives are not always drawn.

Assays:
[1] = tested on: senescent cells in the lung; assay: Elimination of senescent cells induced by Doxorubicin treatment in mice; type: in vivo; settings: single dose 10 mg/kg Doxorubicin; 2 months later treated for 4 consecutive days; FIG. 15
Method: (§1) (A) Experimental set up, mice (n=5 per group) were administered with a single dose of 10 mg/kg of Doxorubicin. […] (B) Cryosections of lungs obtained from control and doxorubicin treated mice were stained with hematoxilin and eosin (to reveal tissue architecture), and SA-β-Gal (to reveal senescent cells). Senescent cells accumulate in the bronchioles of doxorubicin-treated mice. (C) Quantification of the lung area positive for SA-β-Gal staining. […] (D) Representative pictures of lung cryosections.
Further experiments investigated whether the senolytic agents were capable of eliminating senescent cells in vivo. […] These senescent cells are responsible for some of the side-effects associated with chemotherapy and can fuel the growth of cancerous cells (Demaria et al., 2016). […] Doxorubicin treatment induces senescence in the lung.

[2] = tested on: senescent cells in the lung; assay: Elimination of senescent cells induced by whole body irradiation in mice; type: in vivo; settings: 6 Gray whole body irradiation; 2 months later treated for 4 consecutive days; FIG. 16
Description: as §1, with “irradiated” for “administered”, “6 Gray to induce senescence.” for “a single dose of 10 mg/kg of Doxorubicin.”, “irradiated” for “doxorubicin treated”, “irradiated” for “doxorubicin-treated”, “(D).” for “(D)”
Whole-body irradiation is known to cause senescence. In irradiated mice, senescent cells accumulate in different tissues, including the lung (Chang et al., 2016; Yosef et al., 2016).

[3] = tested on: IMR90 cells undergoing OIS; assay: Western blot of cleaved caspase 3 in IMR90 cells undergoing OIS; type: cell-based, human; settings: FIG. 17
Description: Western blot showing cleaved caspase 3 upon treatment of IMR90 cells undergoing OIS with cardiac glycosides.

[4] = tested on: old mice; assay: Intermittent ouabain treatment of old mice (ageing experiment); type: in vivo
Method: (A) 24 month old female mice were subjected to the schedule summarized in this panel. […] (B) Results of rotarod test that assess the physical fitness and coordination of mice. Left bar=saline, right bar=Ouabain.
The concentrations of Albumin (A), Amylase (B) and PHOS (C) on plasma were measured in mice from the aging experiment described in FIG. 21A. 90 days old female mice were included as a comparison (young).

[5] = tested on: Nras^G12V-positive senescent hepatocytes; assay: Model of liver cancer initiation (NrasG12V hydrodynamic tail vein injection); type: in vivo; settings: CB17 SCID/beige mice, 1 mg/kg ip for 3 days from day 5, livers day 9
Description: (A) CB17 SCID/beige mice immunosuppressed mice were subjected to hydrodynamic tail vein injection to express NrasG12V on the liver and induce oncogene-induced senescence on hepatocytes as described in Kang et al (Nature 2011, PMID: 22080947).

[6] = tested on: IMR90 ER:RAS cells; assay: Senolytic activity in IMR90 ER:RAS cells undergoing oncogene-induced senescence (4OHT) vs DMSO-treated non-senescent cells; settings: for death of cells undergoing oncogene induced senescence: 100 nM 4OHT, treated 6 days after induction at indicated concentrations, FIG. 18; for ability of FAK inhibitors to kill differentially senescent cells (4OHT induced) vs non-senescent cells (DMSO treated): FIG. 12; for senolytic properties: selective reduction of senescent (+4OHT) vs normal (−4OHT) cell numbers: 10 μM added 6 days after 100 nM 4OHT, cell numbers 4 days after (DAPI or crystal violet), FIG. 1, FIG. 10
Method: FIG. 1: (A) IMR90 ER:RAS cells were induced to undergo senescence by treating them with 100 nM 4OHT for 6 days. At that point, 10 μM of the indicated drugs was added. In parallel, the same treatments were carried out in IMR90 ER:RAS cells treated with DMSO (−4OHT). […] Cells were fixed at day 6, 8 and 10 after 4OHT induction and stained with crystal violet to assess cell viability. T, Tyr-AG879; P, PF-573228; C, Cyclosporine. (B) A similar experiment to (A) was conducted and cells at day 10 post-induction were fixed and stained with DAPI to assess cell numbers
In the setup used, IMR90 ER:RAS cells were treated with 100 nM 4OHT to induce OIS (oncogene induced senescence) and activate the ER:RAS fusion protein. 6 days after 4OHT induction (+4OHT), once cells were fully senescent, the agents to be tested were added at a concentration of 10 μM, and cell numbers were assessed 4 days after by DAPI stained couple to automated microscopy. Alternatively, cells were fixed and stained with crystal violet. In parallel, the same treatments were carried out in IMR90 ER:RAS cells treated with DMSO (−4OHT).
IMR90 ER:RAS cells were induced to undergo senescence by treating them with 100 nM 4OHT for 6 days. At that point, 10 μM of the indicated drugs was added. In parallel, the same treatments were carried out in IMR90 ER:RAS cells treated with DMSO (−4OHT). […] Cells were fixed at day 6, 8 and 10 after 4OHT induction and stained with crystal violet to assess cell viability. A similar experiment was conducted and cells at day 10 post-induction were fixed and stained with DAPI to assess cell numbers (see FIG. 1).

[7] = tested on: IMR90 ER:RAS cells; assay: Senolysis in presence or absence of pan-caspase inhibitor QVD (apoptosis); type: cell-based, human; settings: 2 or 3 days treatment, with or without QVD; FIG. 13
Method: FIG. 13: Several of the senolytic agents kill senescent cells by inducing apoptosis. […] Consequently cells were treated with DMSO, ABT-263 or the indicated senolytics for 2 (A) or 3 days (B) in the presence (right bar) or absence (left bar) of the pan-caspase inhibitor QVD. Treatment of senescent cells with senolytics kills them, but is prevented in the case of PF-573228, rottlerin and rotenone by pre-treatment with the pan-caspase inhibitor QVD. ABT, ABT-263; PF, PF-573228; JFD, JFD 00244; DPI, diphenyleneiodonium.
Experiments were conducted to investigate the mechanism by which the senolytics caused the elimination of senescent cells using a pan-caspase inhibitor (QVD).
Several of the agents described herein kill senescent cells by inducing apoptosis. […] Consequently, cells were treated with DMSO, ABT-263 or the indicated senolytics for 2 (A) or 3 days (B) in the presence or absence of the pan-caspase inhibitor QVD. Treatment of senescent cells with senolytics kills them, but is prevented in the case of PF-573228, rottlerin and rotenone by pre-treatment with the pan-caspase inhibitor QVD (see FIG. 13).

[8] = cited from earlier work
[9] = in vivo; cited from earlier work
[10] = tested on: IMR90 Cherry and IMR90 ER:RAS GFP cells; assay: Mixed cultures of normal (IMR90 Cherry) and senescent (IMR90 ER:RAS GFP) cells; type: cell-based, human; settings: IMR90 Cherry mixed with IMR90 ER:RAS GFP, 4OHT; FIG. 14
Description: FIG. 14: Senolytic agents JFD 00244 and Rottlerin specifically eliminate senescent cells in mixed cultures containing normal and senescent cells. (A) Setup of the experiments, in which normal cells (IMR90 Cherry) are mixed with IMR90 ER:RAS GFP cells (which become senescent in the presence of 4OHT). (B) Representative pictures showing the mixed cultures treated with the indicated drugs. In the bottom row, upon 4OHT the IMR90 ER:RAS GFP cells are senescent. (C) Quantification of the IMR90 Cherry (left bar) and IMR90 ER:RAS GFP (right bar) in the mixed cultures.
The above experiments were all performed comparing the effects of the drugs in cultures of normal and senescent cells. To understand whether the drugs selectively kill senescent cells from a mixed culture, experiments were conducted using Cherry-labelled normal IMR90 cells and GFP labelled IMR90 ER:RAS cells that could be induced to undergo senescence upon treatment with 4OHT (FIG. 14A).
Compounds JFD 00244 and Rottlerin specifically eliminate senescent cells in mixed cultures containing normal and senescent cells (see FIG. 14). (A) Setup of the experiments, in which normal cells (IMR90 Cherry) are mixed with IMR90 ER:RAS GFP cells (which become senescence in the presence of 4OHT). […] (C) Quantification of the IMR90 Cherry and IMR90 ER:RAS GFP in the mixed cultures.

[11] = use in vivo; cited from earlier work

## C[C@@H]1O[C@@H](O[C@H]2C[C@@H](O)[C@]3(CO)[C@H]4[C@H](O)C[C@]5(C)[C@@H](C6=CC(=O)OC6)CC[C@]5(O)[C@@H]4CC[C@]3(O)C2)[C@H](O)[C@H](O)[C@H]1O [Ouabain]
[1]
  lung area positive for SA-β-Gal staining (senescent cells): partially eliminated
[2]
  lung area positive for SA-β-Gal staining (senescent cells): partially eliminated
[3]
  cleaved caspase 3 (apoptosis in senescent cells): induces apoptosis in senescent cells
[4]; 24 month old female mice, 1 mg/kg ip, 3 consecutive days on treatment weeks, FIG. 21
  rotarod test (physical fitness and coordination): improves the physical fitness of old mice
[4]; old mice of FIG. 21A vs young (90 days old), FIG. 22
  concentrations of Albumin, Amylase and PHOS on plasma: reverts ageing-associated changes of metabolites in blood
[4]; old mice, FIG. 24
  SA-β-Gal positive cells in the liver: decreased senescence-associated β-galactosidase positive cells in the liver
[4]; qRT-PCR, liver, kidney and muscle of old female mice, FIG. 23
  expression of Cdkn2a mRNA (p16Ink4a): can be reduced after ouabain treatment
[5]; FIG. 25B
  SA-b-gal activity in liver: reduced
[5]; FIG. 25C
  p21-positive cells: reduced
[5]; FIG. 25D
  Nras-positive preneoplastic hepatocytes: reduced
[6]
  death of cells undergoing oncogene induced senescence: dose-dependent death of cells undergoing oncogene induced senescence
[6]; with KCl, FIG. 20A
  senolytic activity on adding KCl (increased intracellular K+): prevented by increasing the intracellular K^+ concentration by adding KCl
[6]; with p38 inhibition, FIG. 20B
  senolytic activity on inhibition of p38: partially prevents the senolytic properties of ouabain

## CNC(=O)c1ccc(Nc2ncc(C(F)(F)F)c(NCc3nccnc3N(C)S(C)(=O)=O)n2)cc1 [Defactinib]
[6]
  ability of FAK inhibitors to kill differentially senescent cells (4OHT induced) vs non-senescent cells (DMSO treated): preferentially kill senescent cells in a dose-dependent manner

## C[C@H]1O[C@@H](O[C@H]2[C@@H](O)C[C@H](O[C@H]3[C@@H](O)C[C@H](O[C@H]4CC[C@@]5(C)[C@H](CC[C@@H]6[C@@H]5C[C@@H](O)[C@]5(C)[C@@H](C7=CC(=O)OC7)CC[C@]65O)C4)O[C@@H]3C)O[C@@H]2C)C[C@H](O)[C@@H]1O [Digoxin]
[3]
  cleaved caspase 3 (apoptosis in senescent cells): induces apoptosis in senescent cells
[6]
  death of cells undergoing oncogene induced senescence: dose-dependent death of cells undergoing oncogene induced senescence

## Nc1cc(N)c(N)cc1N [NSC 677249, 1,2,4,5- Benzenetetramine tetrahydrochloride]
[6]
  ability of FAK inhibitors to kill differentially senescent cells (4OHT induced) vs non-senescent cells (DMSO treated): preferentially kill senescent cells in a dose-dependent manner

## Cyclosporine
[6]
  senolytic properties: selective reduction of senescent (+4OHT) vs normal (−4OHT) cell numbers: showed the most promising senolytic properties

## CC(C)(C)c1cc(/C=C(\C#N)C(N)=S)cc(C(C)(C)C)c1O [Tyrphostin AG879, (2E)-3-[3,5-Bis(1,1-dimethylethyl)-4-hydroxyphenyl]-2-cyano-2-propenethioamide]
[6]
  senolytic properties: selective reduction of senescent (+4OHT) vs normal (−4OHT) cell numbers: showed the most promising senolytic properties

## CS(=O)(=O)c1cccc(CNc2nc(Nc3ccc4c(c3)CCC(=O)N4)ncc2C(F)(F)F)c1 [PF-573228, 6-[4-(3-methyane-sulfonyl-benzyl-amino)-5-trifluoro-methyl-pyrimidin-2-ylamino]-3,4-dihydro-1H-quinolin-2-one]
[7]
  elimination of senescent cells with pan-caspase inhibitor QVD (apoptosis induction): selectively induce apoptosis of senescent cells
[6]
  senolytic properties: selective reduction of senescent (+4OHT) vs normal (−4OHT) cell numbers: showed the most promising senolytic properties
  ability of FAK inhibitors to kill differentially senescent cells (4OHT induced) vs non-senescent cells (DMSO treated): preferentially kill senescent cells in a dose-dependent manner

## C=C(C)[C@H]1Cc2c(ccc3c2O[C@@H]2COc4cc(OC)c(OC)cc4[C@@H]2C3=O)O1 [Rotenone, (2R,6aS,12aS)-1,2,6,6a,12,12a-hexahydro-2-isopropenyl-8,9-dimethoxychromeno[3,4-b]furo(2,3-h)chromen-6-one]
[7]
  elimination of senescent cells with pan-caspase inhibitor QVD (apoptosis induction): selectively induce apoptosis of senescent cells

## CC(C)c1c(C(=O)Nc2ccccc2)c(-c2ccccc2)c(-c2ccc(F)cc2)n1CC[C@@H](O)C[C@@H](O)CC(=O)O [Atorvastatin calcium]
[6]; 4OHT vs DMSO, FIG. 11
  senolytic effect of statins, preferential killing of cells undergoing OIS: behaves as a senolytic in concentration dependent manner

## CN(C)CC[C@H](CSc1ccccc1)Nc1ccc(S(=O)(=O)NC(=O)c2ccc(N3CCN(Cc4ccccc4-c4ccc(Cl)cc4)CC3)cc2)cc1[N+](=O)[O-] [ABT-737]
[8]
  solubility: low
[9]
  oral bioavailability: low

## O=C1c2ccccc2C(=O)c2c(NCCc3ccc(O)cc3)ccc(NCCc3ccc(O)cc3)c21 [JFD00244, 1,4-Bis[(p-hydroxy-phenethyl)amino]-anthraquinone]
[10]
  selective elimination of senescent cells from mixed cultures: selective elimination of senescent cells from the co-cultures

## CC(=O)c1c(O)c(C)c(O)c(Cc2c(O)c3c(c(C(=O)/C=C/c4ccccc4)c2O)OC(C)(C)C=C3)c1O [Rottlerin]
[7]
  elimination of senescent cells with pan-caspase inhibitor QVD (apoptosis induction): selectively induce apoptosis of senescent cells
[10]
  selective elimination of senescent cells from mixed cultures: selective elimination of senescent cells from the co-cultures

## CC1(C)CCC(c2ccc(Cl)cc2)=C(CN2CCN(c3ccc(C(=O)NS(=O)(=O)c4ccc(N[C@H](CCN5CCOCC5)CSc5ccccc5)c(S(=O)(=O)C(F)(F)F)c4)cc3)CC2)C1 [ABT-263]
[1]
  lung area positive for SA-β-Gal staining (senescent cells): partially eliminated
[2]
  lung area positive for SA-β-Gal staining (senescent cells): partially eliminated
[11]
  side-effect: significant thrombocytopenia

## C[C@]12CC[C@H](O)C[C@H]1CC[C@@H]1[C@@H]2CC[C@]2(C)[C@@H](c3ccc(=O)oc3)CC[C@]12O [Bufalin, (3β,5β)-3,14-Dihydroxybufa-20,22-dienolide]
[6]
  death of cells undergoing oncogene induced senescence: dose-dependent death of cells undergoing oncogene induced senescence
